Experimental data from the NIST ThermoML archive (doi:10.1021/je800571y).
Numbers after ± are expanded uncertainties.

Experiment: xn = mol fraction of the nth substance listed
Details: 101 kPa, Liquid

CCC(C)(C)O [2-methylbutan-2-ol] + CCC(C)=O
Details	mass density, 293.15 K [kg/m3]	mass density, 298.15 K [kg/m3]	mass density, 303.15 K [kg/m3]	mass density, 308.15 K [kg/m3]	mass density, 313.15 K [kg/m3]	viscosity, 293.15 K [mPa·s]	viscosity, 298.15 K [mPa·s]	viscosity, 303.15 K [mPa·s]	viscosity, 308.15 K [mPa·s]	viscosity, 313.15 K [mPa·s]
x2 = 0	809.61 ± 1.1	805.01 ± 1.1	800.41 ± 1.1	795.81 ± 1.1	791.21 ± 1.2	5.108 ± 0.88	4.474 ± 0.78	3.909 ± 0.69	3.387 ± 0.6	2.909 ± 0.52
x2 = 0.0803	809.22 ± 1.1	804.57 ± 1.1	799.94 ± 1.1	795.3 ± 1.1	790.63 ± 1.2	3.81 ± 0.67	3.35 ± 0.6	2.9 ± 0.52	2.521 ± 0.46	2.26 ± 0.41
x2 = 0.1583	808.84 ± 1.1	804.15 ± 1.1	799.49 ± 1.1	794.82 ± 1.1	790.09 ± 1.2	2.862 ± 0.51	2.521 ± 0.46	2.14 ± 0.39	1.905 ± 0.35	1.7 ± 0.32
x2 = 0.2341	808.48 ± 1.1	803.74 ± 1.1	799.06 ± 1.1	794.36 ± 1.2	789.57 ± 1.2	2.105 ± 0.39	1.85 ± 0.34	1.53 ± 0.29	1.421 ± 0.27	1.287 ± 0.25
x2 = 0.3077	808.13 ± 1.1	803.35 ± 1.1	798.85 ± 1.1	793.92 ± 1.2	789.06 ± 1.2	1.558 ± 0.29	1.37 ± 0.26	1.09 ± 0.21	1.103 ± 0.22	0.9819 ± 0.19
x2 = 0.3794	807.79 ± 1.1	802.97 ± 1.1	798.25 ± 1.1	793.49 ± 1.2	788.57 ± 1.2	1.15 ± 0.22	1.054 ± 0.21	–	0.84 ± 0.17	0.7418 ± 0.15
x2 = 0.449	807.47 ± 1.1	802.6 ± 1.1	797.86 ± 1.1	793.07 ± 1.2	788.09 ± 1.2	0.842 ± 0.17	0.8221 ± 0.17	0.6863 ± 0.14	0.7188 ± 0.15	0.5869 ± 0.13
x2 = 0.5168	807.16 ± 1.1	802.24 ± 1.1	797.48 ± 1.1	792.67 ± 1.2	787.63 ± 1.2	0.6725 ± 0.14	0.6579 ± 0.14	0.5601 ± 0.12	0.5865 ± 0.13	0.4801 ± 0.11
x2 = 0.5828	806.85 ± 1.1	801.89 ± 1.1	796.12 ± 1.1	792.27 ± 1.1	787.18 ± 1.2	0.5515 ± 0.12	0.5913 ± 0.13	0.5201 ± 0.11	0.5202 ± 0.11	0.4017 ± 0.094
x2 = 0.6471	806.56 ± 1.1	801.56 ± 1.1	796.77 ± 1.1	791.89 ± 1.2	786.74 ± 1.2	0.4986 ± 0.11	0.5219 ± 0.12	0.52 ± 0.11	0.4801 ± 0.11	0.3511 ± 0.086
x2 = 0.7097	806.27 ± 1.1	801.23 ± 1.1	796.43 ± 1.1	791.52 ± 1.2	786.32 ± 1.2	0.4935 ± 0.11	0.4894 ± 0.11	0.48 ± 0.11	0.4507 ± 0.1	–
x2 = 0.7707	805.99 ± 1.1	800.91 ± 1.1	796.08 ± 1.1	791.15 ± 1.2	785.9 ± 1.2	0.4482 ± 0.1	0.4437 ± 0.1	0.4801 ± 0.11	0.4505 ± 0.1	0.323 ± 0.081
x2 = 0.8302	805.71 ± 1.1	800.6 ± 1.1	795.75 ± 1.1	790.79 ± 1.2	785.49 ± 1.2	0.4457 ± 0.1	0.4344 ± 0.1	0.4802 ± 0.11	0.4503 ± 0.1	0.3001 ± 0.077
x2 = 0.8882	805.45 ± 1.1	800.29 ± 1.1	795.42 ± 1.1	790.44 ± 1.2	785.09 ± 1.2	0.4464 ± 0.1	0.3813 ± 0.091	0.4402 ± 0.1	0.4012 ± 0.094	0.2999 ± 0.077
x2 = 0.9448	805.18 ± 1.1	799.99 ± 1.1	795.11 ± 1.1	790.1 ± 1.2	784.7 ± 1.2	0.4338 ± 0.1	0.3142 ± 0.079	0.3601 ± 0.087	0.32 ± 0.08	0.2997 ± 0.077

CCC(C)=O [butanone] + CCC(C)O
Details	mass density, 293.15 K [kg/m3]	mass density, 298.15 K [kg/m3]	mass density, 303.15 K [kg/m3]	mass density, 308.15 K [kg/m3]	mass density, 313.15 K [kg/m3]	viscosity, 293.15 K [mPa·s]	viscosity, 298.15 K [mPa·s]	viscosity, 303.15 K [mPa·s]	viscosity, 308.15 K [mPa·s]	viscosity, 313.15 K [mPa·s]
x1 = 0.0684	806.36 ± 1	802.16 ± 1	798.67 ± 1.1	793.88 ± 1.1	789.68 ± 1.1	2.91 ± 0.52	2.429 ± 0.44	2.037 ± 0.37	1.692 ± 0.32	1.499 ± 0.28
x1 = 0.1365	806.25 ± 1	801.98 ± 1	798.39 ± 1.1	793.58 ± 1.1	789.29 ± 1.1	2.34 ± 0.43	2.007 ± 0.37	1.649 ± 0.31	1.339 ± 0.26	1.228 ± 0.24
x1 = 0.2044	806.14 ± 1	801.79 ± 1	798.1 ± 1.1	793.28 ± 1.1	788.9 ± 1.2	1.87 ± 0.35	1.613 ± 0.3	1.352 ± 0.26	1.054 ± 0.21	1.003 ± 0.2
x1 = 0.2721	806.03 ± 1	801.61 ± 1	797.82 ± 1.1	792.98 ± 1.1	788.51 ± 1.2	1.491 ± 0.28	1.299 ± 0.25	1.074 ± 0.21	0.8161 ± 0.17	0.8187 ± 0.17
x1 = 0.3395	805.92 ± 1	801.43 ± 1	797.54 ± 1.1	792.68 ± 1.1	788.13 ± 1.2	1.183 ± 0.23	1.051 ± 0.21	0.8484 ± 0.17	0.6282 ± 0.13	0.6806 ± 0.14
x1 = 0.4066	805.81 ± 1	801.25 ± 1.1	797.26 ± 1.1	792.39 ± 1.1	787.74 ± 1.2	0.9558 ± 0.19	0.8537 ± 0.17	0.6826 ± 0.14	0.5076 ± 0.11	0.5709 ± 0.12
x1 = 0.4735	805.71 ± 1.1	801.07 ± 1.1	796.98 ± 1.1	792.09 ± 1.2	787.36 ± 1.2	0.7693 ± 0.16	0.687 ± 0.14	0.5613 ± 0.12	0.4126 ± 0.096	0.4786 ± 0.11
x1 = 0.5402	805.61 ± 1.1	800.9 ± 1.1	796.71 ± 1.1	791.8 ± 1.2	786.97 ± 1.2	0.6236 ± 0.13	0.56 ± 0.12	0.4526 ± 0.1	0.3601 ± 0.087	0.4206 ± 0.098
x1 = 0.6066	805.5 ± 1.1	800.72 ± 1.1	796.43 ± 1.1	791.51 ± 1.2	786.59 ± 1.2	0.5287 ± 0.12	0.48 ± 0.11	0.3944 ± 0.093	0.326 ± 0.081	0.3681 ± 0.088
x1 = 0.6727	805.4 ± 1.1	800.55 ± 1.1	796.16 ± 1.1	791.22 ± 1.2	786.21 ± 1.2	0.4645 ± 0.11	0.4282 ± 0.099	0.3468 ± 0.085	0.3051 ± 0.078	0.3429 ± 0.084
x1 = 0.7387	805.3 ± 1.1	800.38 ± 1.1	795.89 ± 1.1	790.93 ± 1.2	785.83 ± 1.2	0.4412 ± 0.1	0.3922 ± 0.093	0.3077 ± 0.078	0.309 ± 0.078	0.3191 ± 0.08
x1 = 0.8044	805.21 ± 1.1	800.1 ± 1.1	795.62 ± 1.1	790.64 ± 1.2	785.45 ± 1.2	0.4486 ± 0.1	0.362 ± 0.087	0.3031 ± 0.077	0.3112 ± 0.079	0.2915 ± 0.075
x1 = 0.8698	805.11 ± 1.1	800.04 ± 1.1	795.35 ± 1.1	790.35 ± 1.2	785.07 ± 1.2	0.4468 ± 0.1	0.3482 ± 0.085	0.3071 ± 0.078	0.3186 ± 0.08	0.2805 ± 0.073
x1 = 0.935	805.01 ± 1.1	799.87 ± 1.1	795.08 ± 1.1	790.06 ± 1.2	784.7 ± 1.2	0.42 ± 0.098	0.3 ± 0.077	0.2786 ± 0.073	0.2966 ± 0.076	0.2718 ± 0.072
x1 = 1	804.92 ± 1.1	799.7 ± 1.1	794.81 ± 1.1	789.78 ± 1.2	784.32 ± 1.2	0.3956 ± 0.093	0.2828 ± 0.074	0.2666 ± 0.071	0.2601 ± 0.07	0.2545 ± 0.069
